The supplement of paper PMC10307832

Assays:
Assay in all cases: relative viability (nuclei count vs DMSO), 5 days (fraction); higher = more cells survive
NCI-H650 = system: NCI-H650
Outline: (§1)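 Nuclei were stained with Hoechst during a one-step fixation (final 0.05% Triton X-100, 1% formaldehyde, 1 ug/ml Hoechst) carried out 5 days after dosing, then counted on 4× images. The cells, lung cancer lines in 1536-well plates, had been dosed by pin tool the day after seeding with one drug alone or a fixed anchor-drug dose plus five library-drug doses (not always all listed) in √10 steps. Relative viability is the nuclei count in treated wells divided by that in vehicle wells, and each value is the median of duplicate plates.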

HCC-827 = system: HCC-827
Outline: as §1

LCLC-97TM1 = system: LCLC-97TM1
Outline: as §1

NCI-H1944 = system: NCI-H1944
Outline: as §1

NCI-H2087 = system: NCI-H2087
Outline: as §1

NCI-H2405 = system: NCI-H2405
Outline: as §1

NCI-H1355 = system: NCI-H1355
Outline: as §1

HCC-44 = system: HCC-44
Outline: as §1

NCI-H1563 = system: NCI-H1563
Outline: as §1

H3255 = system: H3255
Outline: as §1

LCLC-103H = system: LCLC-103H
Outline: as §1

NCI-H1793 = system: NCI-H1793
Outline: as §1

NCI-H2085 = system: NCI-H2085
Outline: as §1

NCI-H23 = system: NCI-H23
Outline: as §1

NCI-H322M = system: NCI-H322M
Outline: as §1

NCI-H520 = system: NCI-H520
Outline: as §1

EPLC-272H = system: EPLC-272H
Outline: as §1

NCI-H1993 = system: NCI-H1993
Outline: as §1

UMC-11 = system: UMC-11
Outline: as §1

ChaGo-K-1 = system: ChaGo-K-1
Outline: as §1

SK-MES-1 = system: SK-MES-1
Outline: as §1

NCI-H1651 = system: NCI-H1651
Outline: as §1

NCI-H1395 = system: NCI-H1395
Outline: as §1

EMC-BAC-2 = system: EMC-BAC-2
Outline: as §1

CC(C)Oc1cc(Nc2nc(N[C@@H](C)c3ccc(F)cn3)ncc2Cl)n[nH]1 [AZ23] + CS(=O)(=O)N1CCN(Cc2cc3nc(-c4cccc5[nH]ncc45)nc(N4CCOCC4)c3s2)CC1 [Pictilisib] (partner 1 µM)
relative viability (NCI-H650; first compound 0.01 µM): 0.841
relative viability (NCI-H650; first compound 0.03162 µM): 0.869
relative viability (NCI-H650; first compound 0.3162 µM): 1.1
relative viability (HCC-827; first compound 0.01 µM): 1.11
relative viability (HCC-827; first compound 0.03162 µM): 0.978
relative viability (HCC-827; first compound 0.3162 µM): 1.11
relative viability (LCLC-97TM1; first compound 0.01 µM): 0.134
relative viability (LCLC-97TM1; first compound 0.03162 µM): 0.225
relative viability (LCLC-97TM1; first compound 0.3162 µM): 0.157
relative viability (NCI-H1944; first compound 0.01 µM): 0.342
relative viability (NCI-H1944; first compound 0.03162 µM): 0.353
relative viability (NCI-H1944; first compound 0.3162 µM): 0.319
relative viability (NCI-H2087; first compound 0.01 µM): 0.867
relative viability (NCI-H2087; first compound 0.03162 µM): 1.06
relative viability (NCI-H2087; first compound 0.3162 µM): 0.964
relative viability (NCI-H2405; first compound 0.01 µM): 0.412
relative viability (NCI-H2405; first compound 0.03162 µM): 0.575
relative viability (NCI-H2405; first compound 0.3162 µM): 0.429
relative viability (NCI-H1355; first compound 0.01 µM): 0.367
relative viability (NCI-H1355; first compound 0.03162 µM): 0.46
relative viability (NCI-H1355; first compound 0.3162 µM): 0.401
relative viability (HCC-44; first compound 0.01 µM): 0.727
relative viability (HCC-44; first compound 0.03162 µM): 0.629
relative viability (HCC-44; first compound 0.3162 µM): 0.572
relative viability (NCI-H1563; first compound 0.01 µM): 0.682
relative viability (NCI-H1563; first compound 0.03162 µM): 0.653
relative viability (NCI-H1563; first compound 0.3162 µM): 0.674
relative viability (H3255; first compound 0.01 µM): 0.484
relative viability (H3255; first compound 0.03162 µM): 0.519
relative viability (H3255; first compound 0.3162 µM): 0.494
relative viability (LCLC-103H; first compound 0.01 µM): 0.571
relative viability (LCLC-103H; first compound 0.03162 µM): 0.555
relative viability (LCLC-103H; first compound 0.3162 µM): 0.533
relative viability (NCI-H1793; first compound 0.01 µM): 0.318
relative viability (NCI-H1793; first compound 0.03162 µM): 0.369
relative viability (NCI-H1793; first compound 0.3162 µM): 0.371
relative viability (NCI-H2085; first compound 0.01 µM): 0.556
relative viability (NCI-H2085; first compound 0.03162 µM): 0.563
relative viability (NCI-H2085; first compound 0.3162 µM): 0.446
relative viability (NCI-H23; first compound 0.03162 µM): 0.543
relative viability (NCI-H23; first compound 0.3162 µM): 0.448
relative viability (NCI-H322M; first compound 0.01 µM): 0.477
relative viability (NCI-H322M; first compound 0.03162 µM): 0.497
relative viability (NCI-H322M; first compound 0.3162 µM): 0.561
relative viability (NCI-H520; first compound 0.01 µM): 0.327
relative viability (NCI-H520; first compound 0.03162 µM): 0.309
relative viability (NCI-H520; first compound 0.3162 µM): 0.304
relative viability (EPLC-272H; first compound 0.01 µM): 0.258
relative viability (EPLC-272H; first compound 0.03162 µM): 0.349
relative viability (NCI-H1993; first compound 0.01 µM): 0.755
relative viability (NCI-H1993; first compound 0.3162 µM): 0.869
relative viability (UMC-11; first compound 0.01 µM): 0.762
relative viability (UMC-11; first compound 0.03162 µM): 0.963
relative viability (UMC-11; first compound 0.3162 µM): 0.818
relative viability (ChaGo-K-1; first compound 0.01 µM): 0.658
relative viability (ChaGo-K-1; first compound 0.03162 µM): 1.18
relative viability (ChaGo-K-1; first compound 0.3162 µM): 0.661
relative viability (SK-MES-1; first compound 0.01 µM): 0.329
relative viability (SK-MES-1; first compound 0.03162 µM): 0.358
relative viability (SK-MES-1; first compound 0.3162 µM): 0.387
relative viability (NCI-H1651; first compound 0.01 µM): 0.443
relative viability (NCI-H1651; first compound 0.03162 µM): 0.542
relative viability (NCI-H1651; first compound 0.3162 µM): 0.665
relative viability (NCI-H1395; first compound 0.03162 µM): 0.666
relative viability (NCI-H1395; first compound 0.3162 µM): 0.577
relative viability (EMC-BAC-2; first compound 0.01 µM): 0.535
relative viability (EMC-BAC-2; first compound 0.03162 µM): 0.576
relative viability (EMC-BAC-2; first compound 0.3162 µM): 0.51

CC(C)Oc1cc(Nc2nc(N[C@@H](C)c3ccc(F)cn3)ncc2Cl)n[nH]1 [AZ23] + COc1cccc2cc(-c3nc([C@H]4CC[C@H](C(=O)O)CC4)n4ncnc(N)c34)[nH]c12 [OSI-027] (partner 0.5 µM)
relative viability (NCI-H650; first compound 0.01 µM): 0.463
relative viability (NCI-H650; first compound 0.03162 µM): 0.564
relative viability (NCI-H650; first compound 0.3162 µM): 0.579
relative viability (HCC-827; first compound 0.01 µM): 0.78
relative viability (HCC-827; first compound 0.03162 µM): 0.793
relative viability (HCC-827; first compound 0.3162 µM): 0.882
relative viability (LCLC-97TM1; first compound 0.01 µM): 0.495
relative viability (LCLC-97TM1; first compound 0.03162 µM): 0.519
relative viability (LCLC-97TM1; first compound 0.3162 µM): 0.586
relative viability (NCI-H1944; first compound 0.01 µM): 0.401
relative viability (NCI-H1944; first compound 0.03162 µM): 0.456
relative viability (NCI-H1944; first compound 0.3162 µM): 0.498
relative viability (NCI-H2087; first compound 0.01 µM): 0.675
relative viability (NCI-H2087; first compound 0.03162 µM): 0.477
relative viability (NCI-H2087; first compound 0.3162 µM): 0.459
relative viability (NCI-H2405; first compound 0.01 µM): 0.555
relative viability (NCI-H2405; first compound 0.03162 µM): 0.667
relative viability (NCI-H2405; first compound 0.3162 µM): 0.614
relative viability (NCI-H1355; first compound 0.01 µM): 0.401
relative viability (NCI-H1355; first compound 0.03162 µM): 0.421
relative viability (NCI-H1355; first compound 0.3162 µM): 0.361
relative viability (HCC-44; first compound 0.01 µM): 0.538
relative viability (HCC-44; first compound 0.03162 µM): 0.661
relative viability (HCC-44; first compound 0.3162 µM): 0.375
relative viability (NCI-H1563; first compound 0.01 µM): 0.768
relative viability (NCI-H1563; first compound 0.03162 µM): 0.775
relative viability (NCI-H1563; first compound 0.3162 µM): 0.775
relative viability (H3255; first compound 0.01 µM): 0.55
relative viability (H3255; first compound 0.03162 µM): 0.618
relative viability (H3255; first compound 0.3162 µM): 0.635
relative viability (LCLC-103H; first compound 0.01 µM): 0.401
relative viability (LCLC-103H; first compound 0.03162 µM): 0.505
relative viability (LCLC-103H; first compound 0.3162 µM): 0.535
relative viability (NCI-H1793; first compound 0.01 µM): 0.226
relative viability (NCI-H1793; first compound 0.03162 µM): 0.303
relative viability (NCI-H1793; first compound 0.3162 µM): 0.28
relative viability (NCI-H2085; first compound 0.01 µM): 0.676
relative viability (NCI-H2085; first compound 0.03162 µM): 0.76
relative viability (NCI-H2085; first compound 0.3162 µM): 0.659
relative viability (NCI-H23; first compound 0.03162 µM): 0.58
relative viability (NCI-H23; first compound 0.3162 µM): 0.599
relative viability (NCI-H322M; first compound 0.03162 µM): 0.594
relative viability (NCI-H322M; first compound 0.3162 µM): 0.521
relative viability (NCI-H520; first compound 0.01 µM): 0.276
relative viability (NCI-H520; first compound 0.03162 µM): 0.281
relative viability (NCI-H520; first compound 0.3162 µM): 0.278
relative viability (EPLC-272H; first compound 0.01 µM): 0.238
relative viability (EPLC-272H; first compound 0.03162 µM): 0.275
relative viability (EPLC-272H; first compound 0.3162 µM): 0.256
relative viability (NCI-H1993; first compound 0.01 µM): 0.581
relative viability (NCI-H1993; first compound 0.03162 µM): 0.559
relative viability (NCI-H1993; first compound 0.3162 µM): 0.529
relative viability (UMC-11; first compound 0.01 µM): 0.429
relative viability (UMC-11; first compound 0.03162 µM): 0.505
relative viability (UMC-11; first compound 0.3162 µM): 0.494
relative viability (ChaGo-K-1; first compound 0.01 µM): 0.641
relative viability (ChaGo-K-1; first compound 0.03162 µM): 0.593
relative viability (ChaGo-K-1; first compound 0.3162 µM): 0.695
relative viability (SK-MES-1; first compound 0.03162 µM): 0.711
relative viability (SK-MES-1; first compound 0.3162 µM): 0.745
relative viability (NCI-H1651; first compound 0.03162 µM): 0.77
relative viability (NCI-H1651; first compound 0.3162 µM): 0.881
relative viability (NCI-H1395; first compound 0.03162 µM): 0.708
relative viability (NCI-H1395; first compound 0.3162 µM): 0.655
relative viability (EMC-BAC-2; first compound 0.01 µM): 0.373
relative viability (EMC-BAC-2; first compound 0.03162 µM): 0.42
relative viability (EMC-BAC-2; first compound 0.3162 µM): 0.365
